Where a SMILES comes first, the peptide text is derived from it. The star is where a group is joined. Dabcyl = CN(C)c1ccc(N=Nc2ccc(C(=O)*)cc2)cc1; EDANS = O=S(=O)(O)c1cccc2c(NCCN*)cccc12; GABA = NCCCC(=O)O
Target: T1, CMV assemblin (Human cytomegalovirus, UniProt P16753)
T1 construct: a DNA construction encoding the protease domain of the UL 80 open reading frame; His6 (N); made in house; host or cells: E. coli
Test: Hydrolysis of fluorogenic substrate by CMV assemblin (fluorescence time course, FIG. 2)
Type: biochemical
Settings: 10 μM DE1, protease added; 340 nm excitation, 480 nm emission; within 30 minutes
Description: The fluorometric assay developed to incorporate the substrate compounds of the invention is a method for the determination of a herpesvirus protease and inhibitors of a herpesvirus protease, e.g. a CMV protease (also known as assemblin) encoded by UL 80, which comprises placing a known amount of the herpesvirus protease in the wells of a "Microlite 1"96 well plate (Dynatek Laboratories, Inc.), adding a known amount of the substrate at 22° C., measuring the change in fluorescence with time and determining the molar velocity of the herpesvirus protease by comparing against a standard curve which relates changes in fluorescent intensity to changes in concentration of product. Potential inhibitors of the protease action can be added to the well to observe their effect on the protease cleavage activity.
The arrow indicates the addition of protease to 10 μM DE1 [SEQ ID NO:34]. […] Fluorescence magnitude is plotted versus time.
An assay was developed for screening potential herpesvirus protease inhibitors utilizing the substrates of the invention. Recombinant HCMV protease was purified from E. coli expressing a DNA construction encoding the protease domain of the UL 80 open reading frame of human cytomegalovirus strain AD169. The construction also encoded six additional histidine residues at the amino terminus of the protease. […]

T1 sequence (P16753 1-256): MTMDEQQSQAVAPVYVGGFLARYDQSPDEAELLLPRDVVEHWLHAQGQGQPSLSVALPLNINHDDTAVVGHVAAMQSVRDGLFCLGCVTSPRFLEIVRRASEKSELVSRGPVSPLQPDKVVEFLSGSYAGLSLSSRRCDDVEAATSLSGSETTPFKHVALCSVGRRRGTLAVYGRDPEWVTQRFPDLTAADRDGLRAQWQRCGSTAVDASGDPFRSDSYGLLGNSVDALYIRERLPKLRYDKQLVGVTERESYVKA

CC(C)C[C@H](NC(=O)[C@H](CCCNC(=N)N)NC(=O)[C@H](C)NC(=O)[C@H](CO)NC(=O)[C@H](C)NC(=O)[C@H](CC(N)=O)NC(=O)[C@@H](NC(=O)[C@@H](NC(=O)CCCNC(=O)c1ccc(N=Nc2ccc(N(C)C)cc2)cc1)C(C)C)C(C)C)C(=O)NCCNc1cccc2c(S(=O)(=O)O)cccc12 [DE1, DABCYL-γ-Abu-Val-Val-Asn-Ala-Ser-Ala-Arg-Leu-EDANS] ({Dabcyl-GABA}-VVNASARL-{EDANS})
increase in fluorescence emission on cleavage of the substrate: 10 fold
